The results in this text go back to US11559512B2, “Composition for prevention, alleviation, and/or treatment of heat illness” (priority 2017, dated 2023).

The test system of the assay is human vascular endothelial cells (HUVECs). As to the kind of experiment: Suppression of cell death by addition of medium chain fatty acid, crystal violet / phase contrast microscopy. It counts as cell-based. Conditions: auraptene 5 μM used alone, printed at 37° C. (FIG. 19A).

In the case of `CC(C)=CCC/C(C)=C/COc1ccc2ccc(=O)oc2c1` [auraptene, 7-geranyloxycoumarin], the “overall number of cells, auraptene alone” value is listed as “increase the overall number of cells”.
